{"source": "paper PMC6934184", "about": "“Selective DNA-PKcs inhibition extends the therapeutic index of localized radiotherapy and chemotherapy” (The Journal of Clinical Investigation, 2019)", "target": "T1, PLK3 (Homo sapiens, UniProt Q9H4B4)", "T1 construct": "purchased Thermo Fisher Scientific (Life Technologies) SelectScreen", "T1 sequence (Q9H4B4 whole entry)": "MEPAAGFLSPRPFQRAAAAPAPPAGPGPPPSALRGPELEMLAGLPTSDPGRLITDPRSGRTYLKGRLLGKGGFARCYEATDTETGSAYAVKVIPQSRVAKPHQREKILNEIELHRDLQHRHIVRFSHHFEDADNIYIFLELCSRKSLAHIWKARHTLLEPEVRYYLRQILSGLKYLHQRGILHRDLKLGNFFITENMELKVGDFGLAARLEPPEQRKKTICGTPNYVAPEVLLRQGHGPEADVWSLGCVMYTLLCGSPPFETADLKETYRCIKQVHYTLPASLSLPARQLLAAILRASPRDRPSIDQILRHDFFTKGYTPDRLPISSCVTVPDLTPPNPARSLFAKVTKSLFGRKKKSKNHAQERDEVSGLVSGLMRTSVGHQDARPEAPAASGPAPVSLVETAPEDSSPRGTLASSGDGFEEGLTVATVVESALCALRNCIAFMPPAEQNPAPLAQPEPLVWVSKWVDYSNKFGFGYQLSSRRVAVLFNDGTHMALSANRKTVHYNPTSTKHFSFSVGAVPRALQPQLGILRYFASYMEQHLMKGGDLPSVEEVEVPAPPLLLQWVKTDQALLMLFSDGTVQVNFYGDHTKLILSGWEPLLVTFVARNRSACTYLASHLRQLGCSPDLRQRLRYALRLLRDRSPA", "experiment": "SelectScreen Z'LYTE", "type": "biochemical", "how_it_was_run": "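NU5455 was profiled across the SelectScreen Broad panel of kinase activity and binding assays. Z'LYTE reactions such as CSF1R ran at apparent Km ATP, while the Adapta CAMK1 assay used ATP listed as 10. Values are given as percent.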", "data": [{"smiles": "CN(C(=O)CN1CCOCC1)c1ccc2sc3c(-c4cccc5c(=O)cc(N6CC7CCC(C6)O7)oc45)cccc3c2c1", "note": "[NU5455]", "values": [{"measurement": "inhibition at 1 µM", "result": -18.2, "unit": "%"}]}]}
